What all share (format): functional
What all share (settings): read-out: IZ

The test system of one test is Candida albicans. Kind of test: Antifungal activity against Candida albicans at 200 ug/disk after 24 hrs by disk diffusion method.
Another test deals with Escherichia coli. As to the kind of experiment: Antibiotic activity against Escherichia coli at 200 ug/disk after 24 hrs by disk diffusion method. Background: Agar diffusion results depend on both activity and mobility in agar.
For the next test, the system named is Staphylococcus aureus. Kind of test: Antibiotic activity against Staphylococcus aureus at 200 ug/disk after 24 hrs by disk diffusion method.

Turning to `CO[C@@H]1O[C@@H](OC)c2c1ccc([C@@]1(C)CCCC(C)(C)C1)c2[C@@H](C)C(=O)O` [MEMBRANOLIDE C], the zone of inhibition at 200 µg/disc with Candida albicans amounted to 4 mm; in the test on Escherichia coli, 8 mm; in the test with Staphylococcus aureus, 0 mm.

As for `CO[C@H]1O[C@@H](OC)c2c1ccc([C@@]1(C)CCCC(C)(C)C1)c2[C@@H](C)C(=O)O` [MEMBRANOLIDE D], the zone of inhibition at 200 µg/disc worked out at 9 mm in the test with Candida albicans, 6 mm with Escherichia coli and 7 mm in the test with Staphylococcus aureus.

The values above are taken from ChEMBL document CHEMBL1151253, “Further membranolide diterpenes from the antarctic sponge dendrilla membranosa” (2004).
